According to PubChem BioAssay AID330 (DTP/NCI, 2004):
“And” between values parts separate entries of the source, which are not always exact repeats. Equal values may be shown once. Toxic doses and inconclusive results are not listed. The calls were made as follows: active = survival T/C of 150% or more; inactive = T/C below 125% in these data.

System: P388 leukemia ip, CD2F1 mice, survival T/C
Assay: NCI In Vivo Anticancer Drug Screen. Data for tumor model P388 Leukemia (intraperitoneal) in CD2F1 (CDF1) mice
Details: endpoint: median survival time, higher = longer survival
Procedure, shortened: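 Mice carrying the transplanted tumor received test compound or vehicle. Survival was recorded in each group, and the value is the treated-group measurement divided by that of the vehicle-treated control group.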

[1] = dose: 50.0 mg/kg/injection, schedule: Q01DX005 (ip), vehicle: Klucel (hydroxypropylcellulose) (HPC)
[2] = dose: 50.0 mg/kg/injection, schedule: Q01DX005 (ip), vehicle: saline with Tween-80
[3] = dose: 100.0 mg/kg/injection, schedule: Q01DX005 (ip), vehicle: saline with Tween-80
[4] = dose: 200.0 mg/kg/injection, schedule: Q01DX005 (ip), vehicle: saline with Tween-80
[5] = dose: 100.0 mg/kg/injection, schedule: Q01DX009 (ip), vehicle: saline with Tween-80
[6] = dose: 200.0 mg/kg/injection, schedule: Q01DX009 (ip), vehicle: saline with Tween-80
[7] = dose: 60.0 mg/kg/injection, schedule: Q01DX005 (ip), vehicle: saline with Tween-80
[8] = dose: 120.0 mg/kg/injection, schedule: Q01DX005 (ip), vehicle: saline with Tween-80
[9] = dose: 240.0 mg/kg/injection, schedule: Q01DX005 (ip), vehicle: saline with Tween-80
[10] = dose: 100.0 mg/kg/injection, schedule: Q01DX001 (ip), vehicle: saline with Tween-80
[11] = dose: 100.0 mg/kg/injection, schedule: Q01DX005 (ip), vehicle: Klucel (hydroxypropylcellulose) (HPC)
[12] = dose: 200.0 mg/kg/injection, schedule: Q01DX005 (ip), vehicle: Klucel (hydroxypropylcellulose) (HPC)

Measured: T/C

COc1ccc2nc(Cl)c(CBr)c(CBr)c2c1
inactive: dose: 12.5 mg/kg/injection, schedule: Q01DX005 (ip), vehicle: Klucel (hydroxypropylcellulose) (HPC) 98 % of control | [1] 117 % of control

CCC1C(OC)=CC(CC)(CO)C=C1OC (stereo not given)
inactive: [2] 95 % of control | [3] 95 % of control | [4] 100 % of control

NC1=C(O)C(=O)C(c2c[nH]c3ccc(OCc4ccccc4)cc23)O1 (stereo not given)
inactive: dose: 7.5 mg/kg/injection, schedule: Q01DX005 (ip), vehicle: Klucel (hydroxypropylcellulose) (HPC) 93 % of control | dose: 15.0 mg/kg/injection, schedule: Q01DX005 (ip), vehicle: Klucel (hydroxypropylcellulose) (HPC) 101 % of control | dose: 30.0 mg/kg/injection, schedule: Q01DX005 (ip), vehicle: Klucel (hydroxypropylcellulose) (HPC) 102 % of control and 96 % of control

CCOc1ccccc1N=Nc1c(-c2ccccc2)nn(C(=S)S)c1-c1ccccc1
inactive: [2] 107 % of control | [3] 109 % of control | [4] 110 % of control

O=c1cccc(Cl)[nH]1
inactive: [5] 100 % of control | [6] 95 % of control | dose: 400.0 mg/kg/injection, schedule: Q01DX009 (ip), vehicle: saline with Tween-80 100 % of control

CC(=O)OC1C2CCC3C(C)(O)C4CC(O)C(C)(C)C4(O)C(O)CC13CC2(C)O (stereo not given)
inactive: dose: 0.09 mg/kg/injection, schedule: Q01DX009 (ip), vehicle: saline 100 % of control | dose: 0.19 mg/kg/injection, schedule: Q01DX009 (ip), vehicle: saline 98 % of control | dose: 0.25 mg/kg/injection, schedule: Q01DX009 (ip), vehicle: saline 116 % of control | dose: 0.39 mg/kg/injection, schedule: Q01DX009 (ip), vehicle: saline 100 % of control and 89 % of control | dose: 0.5 mg/kg/injection, schedule: Q01DX009 (ip), vehicle: saline 108 % of control | dose: 1.0 mg/kg/injection, schedule: Q01DX009 (ip), vehicle: saline 107 % of control

CCN(CC)Cc1c(O)c(N=Nc2cccc3ccccc23)cc2ccccc12
inactive: dose: 3.0 mg/kg/injection, schedule: Q01DX009 (ip), vehicle: Klucel (hydroxypropylcellulose) (HPC) 111 % of control | dose: 6.0 mg/kg/injection, schedule: Q01DX009 (ip), vehicle: Klucel (hydroxypropylcellulose) (HPC) 107 % of control | dose: 12.0 mg/kg/injection, schedule: Q01DX009 (ip), vehicle: Klucel (hydroxypropylcellulose) (HPC) 104 % of control | dose: 12.5 mg/kg/injection, schedule: Q01DX009 (ip), vehicle: Klucel (hydroxypropylcellulose) (HPC) 113 % of control

O=C1c2ccccc2C(=O)c2c1cccc2N1C(=O)C=CC1=O
inactive: [7] 101 % of control | [8] 95 % of control | [9] 93 % of control

CC1=C(C(=O)Nc2ccccc2)C(/C=C/c2ccccc2)C(C(=O)Nc2ccccc2)=C(C)N1
inactive: dose: 25.0 mg/kg/injection, schedule: Q01DX001 (ip), vehicle: saline with Tween-80 92 % of control | dose: 50.0 mg/kg/injection, schedule: Q01DX001 (ip), vehicle: saline with Tween-80 89 % of control | [10] 96 % of control

Clc1ccc(N=C(SSC(Cl)(Cl)Cl)SSC(Cl)(Cl)Cl)cc1
inactive: [6] 114 % of control

COc1ccc2nc(Cl)c(CO)c(CO)c2c1
inactive: [1] 102 % of control | [11] 95 % of control | [12] 105 % of control

CN(Cc1ccccc1)C(c1ccccc1)C1(c2ccccc2)Cc2ccccc2C(=O)O1 (stereo not given)
inactive: [1] 87 % of control | [11] 87 % of control | [12] 87 % of control

CC(=O)OCC12C(OC(=O)c3ccccc3)C(=O)C3C(OC(C)=O)C1(OC3(C)C)C(C)(O)CC(OC(C)=O)C2OC(=O)/C=C/c1ccccc1 (stereo not given) (tested in a mixture with another compound)
inactive: dose: 25.0 mg/kg/injection, schedule: Q01DX005 (ip), vehicle: Klucel (hydroxypropylcellulose) (HPC) 100 % of control | [1] 100 % of control | [11] 102 % of control | [12] 102 % of control

C=C1C(=O)OC2C=CCC12 (stereo not given)
inactive: dose: 3.13 mg/kg/injection, schedule: Q01DX009 (ip), vehicle: distilled water + Tween-80 99 % of control | dose: 6.25 mg/kg/injection, schedule: Q01DX009 (ip), vehicle: distilled water + Tween-80 99 % of control | dose: 12.5 mg/kg/injection, schedule: Q01DX009 (ip), vehicle: distilled water + Tween-80 100 % of control | dose: 25.0 mg/kg/injection, schedule: Q01DX009 (ip), vehicle: distilled water + Tween-80 107 % of control | dose: 50.0 mg/kg/injection, schedule: Q01DX009 (ip), vehicle: distilled water + Tween-80 107 % of control

COc1cccc(C)c1C1CC2CCCN2O1 (stereo not given)
inactive: dose: 50.0 mg/kg/injection, schedule: Q01DX009 (ip), vehicle: Klucel (hydroxypropylcellulose) (HPC) 105 % of control | dose: 100.0 mg/kg/injection, schedule: Q01DX009 (ip), vehicle: Klucel (hydroxypropylcellulose) (HPC) 106 % of control | dose: 200.0 mg/kg/injection, schedule: Q01DX009 (ip), vehicle: Klucel (hydroxypropylcellulose) (HPC) 89 % of control

Cn1c(=O)c2[nH]c(C(C)(C)O)nc2n(C)c1=O
inactive: [7] 101 % of control | [8] 104 % of control | [9] 101 % of control

N#CC1=C(Nc2ccccc2Cl)SC(c2ccccc2O)NC1=O (stereo not given)
inactive: [7] 103 % of control | [8] 102 % of control | [9] 96 % of control

CC(C)(F)c1nc2ncncc2[nH]c1=O
inactive: [10] 103 % of control | dose: 200.0 mg/kg/injection, schedule: Q01DX001 (ip), vehicle: saline with Tween-80 103 % of control | dose: 400.0 mg/kg/injection, schedule: Q01DX001 (ip), vehicle: saline with Tween-80 93 % of control

CC(=O)CC(=O)c1ccccc1.CC(=O)CC(=O)c1ccccc1.[Ni]
inactive: dose: 3.0 mg/kg/injection, schedule: Q01DX009 (ip), vehicle: saline with Tween-80 106 % of control | dose: 6.0 mg/kg/injection, schedule: Q01DX009 (ip), vehicle: saline with Tween-80 98 % of control | dose: 12.0 mg/kg/injection, schedule: Q01DX009 (ip), vehicle: saline with Tween-80 99 % of control | dose: 12.5 mg/kg/injection, schedule: Q01DX009 (ip), vehicle: saline with Tween-80 91 % of control | dose: 24.0 mg/kg/injection, schedule: Q01DX009 (ip), vehicle: saline with Tween-80 99 % of control

OCC(F)(F)C(F)(F)C(F)(F)CO
inactive: dose: 100.0 mg/kg/injection, schedule: Q04DX003 (ip), vehicle: saline 100 % of control | dose: 200.0 mg/kg/injection, schedule: Q04DX003 (ip), vehicle: saline 100 % of control | dose: 400.0 mg/kg/injection, schedule: Q04DX003 (ip), vehicle: saline 100 % of control

CC(C)(C)c1cc(CCCCCCCC2(CCCCCCCc3cc(C(C)(C)C)cc(C(C)(C)C)c3)OC(COCCOCCOCCCC#N)C(COCCOCCOCCCC#N)O2)cc(C(C)(C)C)c1 (stereo not given)
inactive: dose: 25.0 mg/kg/injection, schedule: Q01DX005 (ip), vehicle: saline with Tween-80 97 % of control | [2] 95 % of control | [3] 113 % of control | [4] 100 % of control

Oc1c(C(c2ccccc2)N2CCCCC2)ccc2ccccc12 (stereo not given)
inactive: dose: 50.0 mg/kg/injection, schedule: Q01DX009 (ip), vehicle: saline with Tween-80 110 % of control | [5] 105 % of control | [6] 90 % of control

S=C(S)N1CCCCCC1
inactive: dose: 60.0 mg/kg/injection, schedule: Q01DX005 (ip), vehicle: suspension in saline 97 % of control | dose: 120.0 mg/kg/injection, schedule: Q01DX005 (ip), vehicle: suspension in saline 95 % of control
